Experimental findings from patent US20240415878A1, “Compositions and Methods for Modulating Mitochondrial Function” (Board of Regents, The University of Texas System, priority 2021, published 2024) are described below.

Some results are limits rather than exact numbers.

Experiment [1] relates to HIF-1α. The settings on record: for HIF-1α stabilization: higher concentrations causing increased stabilization. The source says: HIF-1α is stabilized in Mrs2−/− mice. To examine the intrinsic role of Mrs2, Mrs2^−/− mice were challenged to LPS-induced inflammatory response. It was noticed that there was a barely detectable HIF-1α stabilization in control but a significant HIF-1α protein accumulation following LPS stimulation in Mrs2^−/− hepatocytes (Daw et al., 2020). […] It was envisioned that loss of Mrs2 in hepatocyte mitochondria might control metabolite fluxes that regulates HIF-1α stability under normoxic conditions. HIF-1α is the most commonly studied transcription factor that responds to oxygen tension and its stabilization controls numerous metabolic cascades, including glycolysis and oxidative phosphorylation (Kaelin and Ratcliffe, 2008; Lum et al., 2007; Semenza, 2013). A targeted metabolite screen was conducted to identify whether these metabolites potentially altered in Mrs2^−/− control HIF-1α stabilization. WT hepatocytes were treated with the PHD inhibitor FG-4952 for 6 hours in the presence or absence of metabolites (Buckley et al., 2012). […] Next it was explored whether citric acid mediated HIF-1α destabilization is a hydroxylation dependent mechanism by reconstitution of hydroxylation-dead mutant HIF-1α in COS-7 cells (Yan et al., 2007). […] Next tested the potency of citric acid and sodium citrate was tested. Hepatocytes isolated from WT or Mrs2^−/− mice were treated for 6 hours. HIF-1α stabilization was less affected by di- or tri-sodium citrate than by citric acid (FIG. 9G). […] The citric acid-mediated HIF-1α destabilization was intact in multiple chemical modalities (FIG. 9H) and the intracellular chelation of Mg^2+ ions suppressed FG-4952-induced HIF-1α stabilization (FIG. 9I). […] Furthermore, COS-7 cells were more sensitive to the HIF-1α stabilizing effect compared to hepatocytes. […] Next HIF-1α abundance was tested in liver tissues harvested from dietary cohorts. HIF-1α protein expression/stabilization was prominent in both Mrs2^−/− and Mrs2^−/− WD, whereas HIF-1α protein was nearly completely absent in WT WD (FIG. 9M). This supports the elevation of HIF-1α protein level as a key mechanism driving transcription changes in Mrs2^−/− WD livers.
Immunoblotting. Crushed tissues were homogenized in lysis buffer (ThermoFisher) on ice for one minute (20-30 strokes) using an automatic Dounce homogenizer set to 2000 RPM. Whole cell lysate was prepared in lysis buffer (Abcam) using 3 sets of 3-second sonication (power level 3) intervals on ice. Protein concentration was estimated using Pierce BCA assay kit and samples were prepared and heated for 90° C. for 5 minutes. Equal amounts of protein were loaded and separated on 4%-12% Bis-Tris polyacrylamide gel (Thermo Fisher Scientific), transferred to a PVDF membrane, blocked for 1-2 h using 5% fat free skim milk, washed and finally, probed with corresponding antibodies as specified below. Antibodies were from Cell Signaling Technology (HIF-1α and Hydroxy HIF-1α dilution 1:3000, MCU dilution 1.5000, MICU1 dilution 1:3000), Abcam Abcam (CPT-1a, CPT-2, OXPHOS cocktail dilution 1:3000), ZYMED Laboratories (β-actin; dilution 1:1,000), and Amersham (secondary antibodies conjugated with peroxidase). Development was done using X-ray film using a series of timed exposures and Image J was used for densitometric analysis on scanned film images.

Experiment [2] addresses T1, human MRS2 (Homo sapiens, UniProt Q9HD23).
T1 construct: 6xHis (N, cleaved yes); made in house; host or cells: BL21 (DE3) codon+ Escherichia coli, pET-28a
T1 sequence (Q9HD23 58-443): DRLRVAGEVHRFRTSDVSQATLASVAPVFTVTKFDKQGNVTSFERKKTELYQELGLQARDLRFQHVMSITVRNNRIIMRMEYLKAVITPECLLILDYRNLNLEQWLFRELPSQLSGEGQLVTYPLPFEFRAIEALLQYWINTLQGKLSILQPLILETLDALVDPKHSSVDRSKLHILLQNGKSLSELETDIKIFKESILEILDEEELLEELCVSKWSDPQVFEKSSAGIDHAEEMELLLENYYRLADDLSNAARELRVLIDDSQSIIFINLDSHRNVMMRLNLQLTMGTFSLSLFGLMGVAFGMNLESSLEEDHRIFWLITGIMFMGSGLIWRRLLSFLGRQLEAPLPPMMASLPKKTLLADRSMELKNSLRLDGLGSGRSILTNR
As to the kind of experiment: Dynamic light scattering of purified full-length MRS2 assembly. In kind it is binding. As to conditions: 5 mM. The method, then:
Next, CPACC was assessed to determine if it directly affects the assembly of purified human MRS2 using dynamic light scattering (DLS). DLS has been used to determine whether the complex stability of proteins/channels is altered by molecular chaperones or drugs (Kitamura et al., 2006). Because of the high sensitivity of DLS to changes in complex sizes, full-length Mrs2 assembly was evaluated in the presence Ca^2+ (5 mM), Mg^2+ (5 mM), Co^2+ (5 mM) or the Mrs2 blocker CPACC (0.5 mM) (FIG. 10K, FIG. 10L, FIG. 10M, FIG. 10N, FIG. 10O). […] A concentration-response assessment confirmed robust decreases in hydrodynamic radii at all CPACC concentrations tested and as low as 10 μM (FIG. 10O).
MRS2 cloning, expression, and purification. The full length human MRS2 (NCBI accession NP_065713.1), identified as MRS258-443 (i.e. residues 58-443) and excluding the mitochondrial targeting sequence, was cloned into pET-28a using Ndel and Xhol restriction sites. […]
Dynamic light scattering (DIS). […] The sample was equilibrated for 5 min at 20° C. before 10 autocorrelation function acquisitions of 5 s each were recorded and averaged. […] The dependence of hydrodynamic size on CPACC concentration was determined using ≈0.5 mg/mL protein supplemented with 0.01 mM, 0.05 mM, 0.1 mM, 0.5 mM or 0.75 mM CPACC, using a similar experimental setup as described above and cumulants analysis.

The test system of experiment [3] is mitochondrial Mg^2+ uptake. As to the kind of experiment: Metabolite screen for ER Mg2+ depletion and mitochondrial Mg2+ uptake, Mag-Green confocal imaging of hepatocytes. In kind it is cell-based, murine. The source says:
Targeted Metabolite Screen Identifies Lactate as activator agonist for Mitochondrial Mg^2+ Uptake. To search for agonists that promote mitochondrial Mg^2+ ([Mg^2+]m) uptake, the inventors developed a cell-based confocal fluorescence imaging. As an initial feature, the inventors tested whether GPCR agonist-induced second messengers promote Mg^2+ dynamics. To discriminate intracellular Ca^2+ and Mg^2+ dynamics, MEFs were loaded with cell permeant Ca^2+ indicator, Fluo-4-AM or Mg^2+ indicator Mag green-AM followed by GPCR agonist, thrombin stimulation. […] It is established that intracellular Ca^2+ dynamics could be monitored using a wide range of fluorescent dyes or genetically encoded Ca^2+ indicators. Conversely, Mg^2+ sensitive indicators are very limited due to either lack of agonists or robust dynamic nature. To identify the agonist, primary murine hepatocytes were loaded with [Mg^2+]i indicator, cell permeant Mag Green-AM (5 μM). Subsequently, dye loaded hepatocytes were stimulated with major cellular metabolites and mitochondrial oxidative phosphorylation (OXPHOS) inhibitors following baseline recording. […] As depicted in FIG. 1B, the reciprocal mobilization of free Mg^2+ ion from ER to mitochondria was observed upon stimulation of Lactate (5 mM) in a temporal fashion. To confirm that lactate-induced Mag-Green signals are indeed measured from mitochondrial compartment, hepatocytes were simultaneously loaded with mitochondrial marker Mito-tracker Red and Mag-Green-AM (FIG. 1C-1F). […] Conversely, sodium lactate or lactic acid (5 mM) triggered a rapid depletion of ER signal with concomitant accumulation nucleus followed by mitochondrial elevation of Mag Green signal with a lag time of ˜25 s (FIG. 1D). Besides nucleotides such as ATP, citrate is also known to chelate free Mg^2+. Since ATP is cell impermeable, citrate (5 mM) was applied and intracellular Mg^2+ mobilization monitored. […] To exclude the possibility that acidic pH of medium by lactate could alter membrane polarization, the pH was normalized. Additionally, the inventors also tested whether both sodium lactate as well as lactic acid induce mitochondrial Mg^2+ uptake. Consistent with sodium form of lactate, lactic acid also elicited a rapid ER depletion followed by mitochondrial Mg^2+ influx indicating a lactate role as an activator of Mg^2+ dynamics. Thus, natural metabolite, lactate rapidly mobilizes ER Mg^2+ which led to cytosolic elevation resulting in activation mitochondrial Mg^2+ uptake.
Mitochondrial Mg^2+ Transporter is Temperature Sensitive. […] To assess optimal concentration of lactate required to trigger Mg^2+ depletion from ER compartment and mitochondrial Mg^2+ uptake, both ER-depletion and mitochondrial Mg^2+ uptake was measured in hepatocytes at 37° C. […] However, a consistent stronger response was perceived at 5 mM lactate stimulation (FIG. 2A and 2B). During these studies depletion of ER Mg^2+ was noticed at 37° C. and room temperature (25° C.) upon 5 mM lactate stimulation (FIG. 2C). Remarkably, mitochondrial Mg^2+ uptake was higher at 37° C. and had no effect at 25° C. showing a temperature sensitivity (FIG. 2D). Based on this experimental evidence, a wide range of temperatures were tested. To determine the temperature responsiveness, primary hepatocytes were kept between 25° C.-40° C. and cells were stimulated with 5 mM lactate. […] (FIG. 2F). Intriguingly, the lactate response was not seen at 25° C. or 30° C. (FIG. 2F).
ER-Dependent Efflux of Free Mg^2+ Promotes Mitochondrial Mg^2+ Uptake. […] Since extracellular delivery of lactate rapidly induces ER-depletion and subsequent mitochondrial uptake, it was asked whether rapid influx of lactate regulates this mechanism. Most mammalian cells utilize monocarboxylate transporters (MCT1-4) for plasma membrane lactate entry. To test this, primary hepatocytes were treated with MCT1 or MCT1/2 inhibitors for 60 minutes. […]

In experiment [4] the test system is MEFs. As to the kind of experiment: Intracellular Ca2+ and Mg2+ dynamics in MEFs (Fluo-4-AM, Mag green-AM). In kind it is cell-based. The source says: Targeted Metabolite Screen Identifies Lactate as activator agonist for Mitochondrial Mg^2+ Uptake. To search for agonists that promote mitochondrial Mg^2+ ([Mg^2+]m) uptake, the inventors developed a cell-based confocal fluorescence imaging. As an initial feature, the inventors tested whether GPCR agonist-induced second messengers promote Mg^2+ dynamics. To discriminate intracellular Ca^2+ and Mg^2+ dynamics, MEFs were loaded with cell permeant Ca^2+ indicator, Fluo-4-AM or Mg^2+ indicator Mag green-AM followed by GPCR agonist, thrombin stimulation. […] It is established that intracellular Ca^2+ dynamics could be monitored using a wide range of fluorescent dyes or genetically encoded Ca^2+ indicators. Conversely, Mg^2+ sensitive indicators are very limited due to either lack of agonists or robust dynamic nature. To identify the agonist, primary murine hepatocytes were loaded with [Mg^2+]i indicator, cell permeant Mag Green-AM (5 μM). […] To confirm that lactate-induced Mag-Green signals are indeed measured from mitochondrial compartment, hepatocytes were simultaneously loaded with mitochondrial marker Mito-tracker Red and Mag-Green-AM (FIG. 1C-1F). […] Since ATP is cell impermeable, citrate (5 mM) was applied and intracellular Mg^2+ mobilization monitored. […]

Consider `[Cl][Co][Cl]` [CoCl2, cobalt chloride, reference compound], for which the HIF-1α stabilization entry in experiment [1] (hepatocytes) is on record as “promoted HIF-α stabilization”.
Consider `[Cl-].[Cl-].[Co+2]` [Co^2+, reference compound], for which the “full-length MRS2 complex sizes (DLS)” value in experiment [2] is given as “potently decreased”.
On to `COC(=O)CNC(=O)C(=O)OC` [DMOG, reference compound], for which, in experiment [1] (hepatocytes), the HIF-1α stabilization entry is given as “promoted HIF-α stabilization”.
For the molecule `Cc1nc(C(=O)NCC(=O)O)c(O)c2ccc(Oc3ccccc3)cc12` [FG-4592, reference compound], the HIF-1α stabilization result in experiment [1] (hepatocytes) is “promoted HIF-α stabilization”.
On to `[Cl-].[Cl-].[Mg+2]` [Mg^2+], for which the “HIF-1α stabilization at high levels” value in experiment [1] (10 mM, normoxia) is “sufficient to promote low levels of HIF-1α stabilization”.
As for `N#C/C(=C\c1cn(-c2ccccc2)c2ccccc12)C(=O)O` [UK5099, reference compound], the “effect of blockade of mitochondrial pyruvate entry on HIF-1α stabilization” value in experiment [1] (hepatocytes) is reported as “did not prevent HIF-1α stabilization”.
Turning to `O=C(O)CC(O)(CC(=O)O)C(=O)O` [citrate], in experiment [3] (5 mM), the “effect on mitochondrial and ER Mg^2+ signals” value was “partly chelated both mitochondrial and ER Mg^2+ signals”.
For `CC(O)C(=O)O` (centres unmarked) [lactate], the “lactate-induced mitochondrial Mg^2+ uptake” value in experiment [3] (5 mM, 25° C. or 30° C.) is “not seen”; in experiment [3] (5 mM, 34° C. and 40° C.) it was “sub-optimal”; in experiment [3] (5 mM, 37° C.), “maximal”. The “Lactate-induced ER Mg^2+ depletion” value in experiment [3] (5 mM, 25° C.-40° C.) is reported as “seen at all the indicated temperature range”. Further, the “concentration that promotes ER depletion and partial uptake of Mg^2+ into mitochondria” value in experiment [3] (hepatocytes, 37° C.) was not below 2 mM. Also, the “ER Mag-Green signal depletion and mitochondrial Mg^2+ uptake” value in experiment [3] (metabolite screen, primary murine hepatocytes) is “rapid and robust depletion of ER Mag-Green signal followed by a subsequent elevation in the mitochondria”.
On to `CC(O)C(=O)O` (centres unmarked) [lactic acid], for which the “lag time to mitochondrial elevation of Mag Green signal” value in experiment [3] (5 mM) is approximately 25 s.
On the same count and under the same terms, the same measure for `CC(O)C(=O)[O-].[Na+]` (centres unmarked) [sodium lactate]: approximately 25 s.
Regarding thrombin, the “cytosolic Ca^2+ mobilization” value in experiment [4] (Fluo-4-AM) was “rapidly elicited cytosolic Ca^2+ mobilization”. For the same molecule, the “intracellular Mg^2+ dynamics” value in experiment [4] (Mag green-AM) is on record as “absent”.
